One data set relates to TNF-α production. The data set is described as follows: In vitro inhibition of TNF-α production in human blood (LPS-stimulated whole blood, sandwich ELISA). It is filed as cell-based. As to conditions: lipopolysaccharide 100 ng/ml, 6 hours, read-out: % inhib. TNF-α. As to the method: (§1) Peripheral blood from healthy male donors was drawn into heparinized syringes (12.5 U heparin/ml). Blood samples were three-fold diluted in RMPI 1640 medium (Life Technologies, Belgium) supplemented with 2 mM L-glutamine, 100 U/ml penicillin and 100 μg/ml streptomycin, and 300 μl fractions were distributed in 24-well multidisc plates (Nunc, Roskilde, Denmark). Blood samples were preincubated (60 minutes at 37° C.) in a humidified 6% CO2-atmosphere with 100 μl of drug solvent (final concentration 0.02% dimethylsulfoxide in RPMI 1640) or with 100 μl of an appropriate dose of test compound before being stimulated by the addition of 100 μl of lipopolysaccharide at a final concentration of 100 ng/ml. After 6 hours, cell-free supernatant fluids were collected by centrifugation and stored at −20° C. until tested for the presence of TNF-α.
(§2) Cytokine protein concentrations were determined by sandwich ELISA as described in Van Wauwe et al. (1996, Inflamm Res, 45, 357-363). Murine monoclonals used as capture antibodies to human cytokines were obtained from R&D Systems (Abingdon, United Kingdom) and code named MAB210 and MAB611 for TNF-α and IL-12 respectively. Biotinylated goat polyclonal antibodies used to detect human cytokines were from R&D Systems (BAF210, BAF219). Cytokine levels were calculated from standard curves using recombinant cytokines supplied by R&D Systems.
In general terms: In an ELISA, binding on a coated surface is turned into a signal by an enzyme label.

Another data set has as its system IL-12p40 production. The data set is described as follows: In vitro inhibition of IL-12p40 production in human blood (LPS-stimulated whole blood, sandwich ELISA). It is filed as cell-based. As to conditions: lipopolysaccharide 100 ng/ml, 24 hours, read-out: % inhib. IL-12 (p40); for inhibition at 1 µM: test dose 1 × 10^−6 M. The method, then:
as §1, with “After 24” for “After 6”, “of IL-12p40.” for “of TNF-α.”
as §2

Experimental findings from US7803823B2, “2-amino-4,5-trisubstituted thiazolyl derivatives” (Janssen Pharmaceutica NV, priority 2001, dated 2010) are described below.

Regarding `Fc1sc(Nc2cccc(C(F)(F)F)c2)nc1-c1cccnc1` [Compound 1], the melting point is 208 to 210 °C. Also, the inhibition at 1 µM with TNF-α production (test dose 1 × 10^−6 M) was 60%. Besides, in the data set on TNF-α production (test dose 1 × 10^−7 M), the inhibition at 0.1 µM was 58%. Also, in the data set on IL-12p40 production, the inhibition at 1 µM was found to be 54%. For the same compound, in the data set with IL-12p40 production (test dose 1 × 10^−7 M), the inhibition at 0.1 µM was found to be 56%.

Consider `CC(O)c1sc(Nc2cccc(C(F)(F)F)c2)nc1-c1cccnc1` (stereo not drawn) [Compound 14], for which, in the data set with IL-12p40 production, the inhibition at 1 µM worked out at 52%.

Usually melting point stands for the temperature of the solid-liquid transition.
